Measurements from patent publication US20140239525A1, “INHALABLE PHARMACEUTICAL COMPOSITIONS” (BOARD OF REGENTS, UNIVERSITY OF TEXAS SYSTEM, priority 2011, published 2014).
Like-named read-outs stand apart in the source and are kept apart here.

Experiments:
[1] = system: IL-12; test: Inflammatory response: IL-12 in bronchoalveolar lavage supernatant by ELISA; assay type: in vivo, mice
Protocol: The inflammatory response to the administration of hydrophobic bioactive agents (e.g., as discussed in connection with Example 1-3 above) was measured. Surgery is performed on sacrificed mice to expose the pleural cavity and trachea at the throat. […] An aliquot (about 0.75 mL) of phosphate buffered saline is instilled through the cannula into the lungs and removed to wash the bronchial and alveolar surfaces. This process is repeated for a total of three washes. The phosphate buffered saline containing cells is placed into centrifuge vials and centrifuged at about 3000 rpm (MiniSpin Plus, Eppendorf International, Hamburg, Del.). The supernatant is removed leaving the collected cells in the pellet. The supernatant from the BAL (Bronchoalveolar Lavage) is analyzed by enzyme-linked immunosorbent assay (ELISA) for IL-12 elevation (n=2 per sample tested).

[2] = Particle size distribution by laser diffraction (LD); assay type: physicochemical
Protocol: Laser Diffraction (LD): Bulk CoQ10 powder was dispersed in 20% (v/v) 1,3-propanediol in deionized water for analysis of particle size distribution. This dispersed sample was then added to a small cell apparatus in a Malvern Mastersizer S® instrument (Malvern Instruments, Worcestershire, UK) equipped with a 300 mm lens until 5-10% obscuration was attained. The internal phase and dispersant refractive indexes were 1.45 and 1.33, respectively.
(§1) Particle Size Distribution: Particle size distribution testing of the dispersed formulations was performed with LD using a wet sample dispersion unit stirring at 1,000 rpm coupled to a Malvern Spraytec® (Malvern Instruments, Worcestershire, UK) equipped with a 300 mm lens. The dispersed formulations were added to distilled water (dispersant) until approximately 5% laser obscuration was attained. The internal phase and dispersant refractive indexes were set as 1.45 and 1.33, respectively. A timed measurement was performed for 45 seconds with 1 second sampling periods (a total of 45 measurements). Results are presented as Dv(X) and span, where X is the cumulative percentile of particles under the referred size (e.g. Dv(50) corresponds to the median volume of the particles). Span is a measurement of particle size distribution calculated as [Dv(90)-Dv(10)]/Dv(50)]. A higher span indicates a more polydisperse particle size distribution.
as §1, with “5%” for “5% laser”, “were” for “were set as”, “45 data acquisition periods).” for “45 measurements).”, “is the” for “is a”, “as [Dv(90)−Dv(10)]/Dv(50)].” for “as [Dv(90)-Dv(10)]/Dv(50)].”

[3] = solubilized oral formulations, cited from earlier work
[4] = system: mice; test: Survival and health of mice after aerosol dosing; assay type: in vivo; conditions: 48 hours after the end of the nebulization event
Protocol: Pulmonary Delivery to Mice: Animals were caged in groups of 4 and maintained on a normal rodent chow diet with free access to water. Prior to dosing, CD-1@ IGS ICR mice (Charles River Laboratories International, Inc., Wilmington, Mass., USA) were individually acclimatized for approximately 10 minutes per day for 3 days into restraint tubes, restricted by an anterior nose insert and a posterior holder. The dosing apparatus was placed inside a fume hood to collect escaping aerosol containing drug. To avoid influence from the airflow provided by the fume hood, an erlenmeyer container was placed at the end of the tubing system as a buffer. The airflow rate was set to 1 L/min to ensure proper drug aerosolization into the nose-only chamber (internal volume: 230 mL; diameter: 3.8 cm; length: 20.3 cm) using an Aeroneb Pro® vibrating-mesh nebulizer (Aerogen, Galway, Ireland). Following preparation, all formulations (saline control, DMPC, DPPC, and DSPC) were dosed for 15 minutes to mice weighing from 23 to 33 g each, at time of dosing. Each single-dose studied group consisted of thirty-six male animals. At each time point (0.5, 1, 3, 8, 24, and 48 hours after the end of the aerosolization event) six animals randomly selected from different dosing events of the same formulation were sacrificed by narcosis with carbon dioxide. […]

[5] = CoQ10 in lung tissue of mice after 15 min nose-only aerosol dosing; assay type: in vivo
Protocol: Pulmonary Delivery to Mice: Animals were caged in groups of 4 and maintained on a normal rodent chow diet with free access to water. Prior to dosing, CD-1@ IGS ICR mice (Charles River Laboratories International, Inc., Wilmington, Mass., USA) were individually acclimatized for approximately 10 minutes per day for 3 days into restraint tubes, restricted by an anterior nose insert and a posterior holder. The dosing apparatus was placed inside a fume hood to collect escaping aerosol containing drug. To avoid influence from the airflow provided by the fume hood, an erlenmeyer container was placed at the end of the tubing system as a buffer. The airflow rate was set to 1 L/min to ensure proper drug aerosolization into the nose-only chamber (internal volume: 230 mL; diameter: 3.8 cm; length: 20.3 cm) using an Aeroneb Pro® vibrating-mesh nebulizer (Aerogen, Galway, Ireland). Following preparation, all formulations (saline control, DMPC, DPPC, and DSPC) were dosed for 15 minutes to mice weighing from 23 to 33 g each, at time of dosing. Each single-dose studied group consisted of thirty-six male animals. At each time point (0.5, 1, 3, 8, 24, and 48 hours after the end of the aerosolization event) six animals randomly selected from different dosing events of the same formulation were sacrificed by narcosis with carbon dioxide. As part of the collection process, blood was withdrawn by cardiac puncture, lungs were harvested, and a nasal wash was performed. The samples were extracted for analysis with liquid chromatography coupled with tandem mass spectrometry (LC/MS/MS).
Analysis of CoQ10 Levels in Lung Tissue, Blood Plasma, and Nasal Cavity: For each experiment, CoQ10 levels were determined after liquid extraction using liquid chromatography coupled with tandem mass spectrometry (LC-MS/MS). The methods were validated in the drug concentration range of 0.1 to 600 μg/mL. The general sample preparation protocols for lung tissue, blood plasma, and nasal cavity analysis are described below. […]

[6] = after ball milling for 18 hours
[7] = previous studies, same nebulizer

For `COC1=C(OC)C(=O)C(C/C=C(\C)CC/C=C(\C)CC/C=C(\C)CC/C=C(\C)CC/C=C(\C)CC/C=C(\C)CC/C=C(\C)CC/C=C(\C)CC/C=C(\C)CCC=C(C)C)=C(C)C1=O` [CoQ10, Coenzyme Q10], the “IL-12 levels in BAL supernatant” value ([1]; ELISA) was “not associated with a rise in IL-12 levels”, the lung inflammation ([1]; mouse, in vivo) was “does not cause lung inflammation” and the “Dv(50)” value [2, 6] was 29.87 μm. For the same compound, the span [2, 6] was 2.282, the particle size ([2]; bulk CoQ10 powder) was 30 μm and the “Dv(50)” value ([2]; bulk material) was 29.87 μm. The span ([2]; bulk material) was 2.051, the “highest plasma concentration of CoQ10 reported in the literature” value ([3]; approximate conversion) was “approximately 9 μg/mL” and the “highest plasma concentration of CoQ10 reported in the literature” value [3] was 10.7 µmol/L. The “survival and health signs” value [4] was “all mice were alive and presenting healthy signs”, the “time CoQ10 stays in the lungs at relatively high concentrations” value ([5]; mice, after 15 min aerosol) was “up to 48 hours” and the “Cmax relative to dispersions of cyclosporine A” value [5, 7] was ≤ 75 fold. For the same compound, the “Cmax relative to dispersions of itraconazole” value [5, 7] was ≤ 165 fold.
